# From patent US10981927B2, “Bioactive compounds” (priority 2014, dated 2021)
# Where two headings read alike, the source gives them in different places.
# Key:
# mice [1] = conditions: cited from earlier work; for LD50 reported for other cyclic imines: intraperitoneal injection
# [2] = test system: Bcl-2 overexpressing Jurkat cells (B9 clone); assay: cells
# Protocol: (§1) Jurkat T-lymphocyte-like, pro-myelocytic HL60 and erythroleukemic K562 cell lines were obtained from the American Type Culture Collection (ATCC, Rockville, Md., USA). The B9 Jurkat cell clone that overexpresses Bcl-2 was previously generated and characterised (Thomson et al (2005)). Jurkat and HL60 cells were grown in culture using RPMI 1640 media supplemented with 10% FBS, 100 units/mL penicillin and 100 μg/mL streptomycin at 37° C. in a humidified atmosphere with 5% CO2. K562 cells were grown in culture using Iscoves DMEM media supplemented with 10% FBS, 100 units/mL penicillin and 100 μg/mL streptomycin at 37° C. in a humidified atmosphere with 5% CO2.
# (§2) All cells were treated at 1×10^6 per mL in media. Fresh stock solutions of ABT-737 were prepared in sterile DMSO and stored at −20° C. Stock solutions of 50 mM were then further diluted with DMSO and added to cells, maintaining the final concentration of DMSO constant at 0.1%. Jurkat and K562 cells were treated with 200 nM ABT-737, HL60 cells were treated with 50 nM ABT-737. Stocks of the compound I, pinnatoxin F and pinnatoxin G (1000×) were prepared in sterile DMSO and stored at −20° C. Concentrations were calculated using molecular weights of 401 (the compound I), 764 (pinnatoxin F) and 693 (pinnatoxin G). The final concentration of DMSO was kept constant at 0.1%.
# (§3) Integrity of cell plasma membranes was assessed using propidium iodide (PI) staining at 48 hours. Cells (0.2×10^6) were loaded with 1 μg of propidium iodide (1 μL of a 1 mg/mL stock in water per 200 μL of cells). PI uptake by non-viable (stained, PI positive) cells was measured using the FC500 MPL Flow Cytometry system (Beckman Coulter Inc.). Viable cells were defined as PI-negative cells expressed as a percentage of the 10,000 cells analysed.
# K562 cells = assay: viability assay (propidium iodide, flow cytometry), K562 cells
# Protocol: as §1
# All cells were treated at 1×10^6 per mL in media. Fresh stock solutions of ABT-737 were prepared in sterile DMSO and stored at −20° C. Stock solutions of 50 mM were then further diluted with DMSO and added to cells, maintaining the final concentration of DMSO constant at 0.1%. […] Concentrations were calculated using molecular weights of 401 (the compound I), 764 (pinnatoxin F) and 693 (pinnatoxin G). […]
# as §3, with “Cells (0.2×10^6) were loaded with 1 μg of propidium iodide (1 μL of a 1 mg/mL stock in water per 200 μL of cells).” left out
# Vero cells = assay: in vitro dose-response (toxicity) against Vero cells; type: cell-based
# Protocol: (§4) FIG. 2. Dose response curves for the compound I designated portimine against P388 (▴) and Vero (▪) cells over 72 hours exposure.
# (§5) No effects were recorded at 500 or 700 μg/kg. […] Furthermore, the onset of symptoms of toxicity was much slower with the compound I than with other cyclic imines. Structure-activity relationships among cyclic imines, both in terms of acute toxicity and effects on neuromuscular transmission, point to the importance of the imine moiety in the mode of action (Munday (2008)). […] This toxicity profile prompted further investigations into the use of the compound I as an anticancer therapeutic or synergist for Bcl-2 antagonists such as the compound designated ABT-737: […]
# [3] = test system: Caspase-3-like DEVDase activity in wild-type Jurkat cells; assay: caspase assay (DEVD-AMC), wild-type Jurkat cells; type: cell-based, human
# Protocol: (§6) Six hours after treatment 1×10^6 cells were harvested and stored as cell pellets at −80° C. Cell pellets were resuspended in 15 μL PBS, transferred to a 96-well fluorescent plate, and 95 μL buffer (100 mM HEPES, 10% sucrose, 5 mM DTT, 0.1% NP-40 and 0.1% CHAPS at pH 7.25) containing 50 μM DEVD-AMC. The rate of release of fluorescent AMC was monitored at 37° C. (λex 390 nm, λem 460 nm). Data are expressed as a fold increase in activity over vehicle-treated cells incubated for the same time.
# HL60 cells = assay: viability assay (propidium iodide, flow cytometry), HL60 cells; conditions: for CC50: Homo sapiens, HL-60, 48 h
# Protocol: as §1, §2, §3
# caspase-3 in P388 cells = assay: activation of caspase-3 in P388 cells; type: cell-based; conditions: after 12 hours of exposure
# Protocol: as §5
# P388 cells = assay: in vitro dose-response (toxicity) against P388 cells; type: cell-based
# Protocol: as §4, §5
# Jurkat cells = assay: phosphatidylserine assay (Annexin V-FITC / propidium iodide), Jurkat cells; type: cell-based, human
# Protocol: Phosphatidylserine (PS) becomes exposed on the outer leaflet of the plasma membrane during apoptosis. PS binds strongly with Annexin-V, which when labelled with a fluorescent probe such as fluorescein isothiocyanate (FITC), allows the detection of cells undergoing apoptosis. Treated cells (0.1×10^6) were harvested and centrifuged at 10,000×g for 1 minute. The supernatant was removed and cells were resuspended in 100 μL Annexin-V Binding Buffer (10 mM HEPES pH 7.4, 140 mM NaCl, 2.5 mM CaCl2). Cells were stained by adding 1 μL Annexin-V FITC conjugate, and then incubated in the dark at room temperature for 15 minutes. […] Viable cells (PI negative) that stained with Annexin-V FITC were termed PS positive.
# Jurkat T-lymphoma cells = assay: viability assay (propidium iodide, flow cytometry), Jurkat cells; conditions: for CC50: Homo sapiens, Jurkat, 48 h; for cytotoxicity: Jurkat cells, 48 hours, over the concentration range tested
# Protocol: as §1, §2, §3
# [4] = test system: Caspase-3-like DEVDase activity in Bcl-2 overexpressing Jurkat cells; assay: caspase assay (DEVD-AMC), Bcl-2 overexpressing Jurkat cells; type: cell-based, human
# Protocol: as §6
# [5] = acute toxicity in mice by intraperitoneal injection; type: in vivo; conditions: mouse, in vivo, ip, intraperitoneal injection
# Protocol: as §5
# mice [6] = assay: as above; type: in vivo
# Protocol: as §5
compound,measurement,setting,value
C=C1CCCC2=NC[C@H](C)[C@@H](C)C[C@@]23CCC([C@@H]2C=C(C)C(=O)O2)=C(C)[C@@H]3/C=C(\C)[C@@H](O)C[C@H]2O[C@@]3(C[C@H]2C)O[C@@H](CC[C@@]3(C)O)C1 [spirolide H],toxicity to mice relative to the compound I,mice [1]; Roach et al (2009),even less toxic to mice than the compound I
"C=CC1=C[C@@H]2[C@@H]3O[C@]4(CC[C@H](O4)[C@@H](C)C[C@@H](O)C3=O)C[C@H](O)C3=NCC[C@@]32CC1 (relative stereo) [compound I, (4R,6S,9R,10R,12S,14R,14aR,18aS)-rel-16-ethenyl-1,2,4,5,7,8,9,10,11,12, 14,14a,17,18-tetradecahydro-4,12-dihydroxy-10-methyl-)13H-6,9:6,14-diepoxybenzo[2,3]cyclotetradeca[1,2-b]pyrrol-13-one]",CC50,"[2]; Homo sapiens, Jurkat, 48 h, read-out: LC50",2.4 nM
same,cell death,"[2]; Jurkat cells overexpressing Bcl-2, 48 hours, without ABT-737, up to highest concentrations tested",unable to trigger cell death
same,CC50,"K562 cells; Homo sapiens, K562, 48 h, read-out: LC50",6.7 nM
same,sensitivity of K562 cells,"K562 cells; K562 cells, 48 h, without ABT-737",relatively resistant
same,cells killed,"Vero cells; 10 nM, 72 hours of exposure",> 90%
same,EC50,"Vero cells; Chlorocebus sabaeus, 72 hours exposure",3 nM
same,caspase activity time course,"[3]; Jurkat cells, 50 nM portimine",steady increase in caspase activity over the 5 hours
same,caspase activation,"[3]; wild-type Jurkat cells, increasing concentrations, 6 hours",dose-dependent increase
same,CC50,"HL60 cells; read-out: LC50, HL60 cells, 48 h, with 50 nM ABT-737",0.8 nM
same,CC50,"HL60 cells; read-out: LC50, HL60 cells, 48 h, without ABT-737",34 nM
same,activation of caspase-3,caspase-3 in P388 cells,observed
same,EC50,"P388 cells; Mus musculus, P388 cells, 72 hours exposure",2.7 nM
same,cells killed,"P388 cells; P388 cells, 10 nM, 72 hours of exposure",> 90%
same,time at which annexin V positive cells are evident,Jurkat cells; 50 nM portimine,2 h
same,cells annexin V positive,Jurkat cells; 6 hours,up to 50%
same,necrosis,Jurkat cells; annexin V / propidium iodide staining,no indication of significant necrosis
same,CC50,"Jurkat T-lymphoma cells; read-out: LC50, Jurkat cells, 48 hours, without ABT-737",6 nM
same,CC50,"Jurkat T-lymphoma cells; read-out: LC50, wild-type Jurkat cells, 48 hours, with 200 nM ABT-737",1.4 nM
same,increase in caspase activity,[4]; 50 nM portimine in combination with 200 nM ABT-737,60 fold
same,caspase activity,"[4]; any concentration, 6 hours",no caspase activity
same,LD50,[5],1.57 mg/kg
same,onset of symptoms of toxicity,mice [6]; compared with other cyclic imines,much slower
same,effects recorded at sublethal doses,"mice [6]; intraperitoneal injection, 500 or 700 μg/kg",No effects
"C=C1CCCC2=NC[C@H](C)[C@@H](C)C[C@@]23CCC([C@@H]2CCC(=O)O2)=C[C@@H]3[C@@H]2O[C@@]3(C[C@@H](C)C[C@H]2O3)C[C@@H]2O[C@]3(CC[C@@]4(O[C@@H](CC[C@@]4(C)O)C1)O3)C[C@H](C)[C@@H]2O [pinnatoxin F, reference compound]",LD50 reported for other cyclic imines,mice [1],0.016 mg/kg
same,EC50,P388 cells; P388 cells in vitro,> 1000 nM
same,cytotoxicity,Jurkat T-lymphoma cells,little cytotoxicity
C=C1CCCC2=NCC(C)C(C)CC23CCC(C2C=C(C)C(=O)O2)=C(C)C3/C=C(/C)C(O)CC2CCC3(CCC4(OC(CCC4(C)O)C1)O3)O2 (centres unmarked) [desmethyl spirolide C],LD50 reported for other cyclic imines,mice [1],0.0069 mg/kg
CC1=C[C@@H](C2=C(C)[C@@H]3/C=C(\C)[C@@H](O)CC[C@@H]4C[C@@H](C)[C@@H](O4)/C(C)=C/CCC4=NCCC[C@@]43CC2)OC1=O [gymnodimine],LD50 reported for other cyclic imines,mice [1],0.096 mg/kg
"C=CC1=C[C@@H]2[C@@H]3O[C@]4(C[C@H]5CCC[C@@]6(CC[C@@]7(O[C@@H](CC[C@@]7(C)O)CC(=C)CCCC7=NC[C@H](C)[C@@H](C)C[C@@]72CC1)O6)O5)C[C@@H](C)[C@@H](O)[C@H]3O4 [pinnatoxin G, reference compound]",cytotoxicity,Jurkat T-lymphoma cells,little cytotoxicity
"CN(C)CC[C@H](CSc1ccccc1)Nc1ccc(S(=O)(=O)NC(=O)c2ccc(N3CCN(Cc4ccccc4-c4ccc(Cl)cc4)CC3)cc2)cc1[N+](=O)[O-] [ABT-737, 4-[4-[(4′-chloro[1,1′-biphenyl]-2-yl)methyl]-1-piperazinyl]-N-[[4-[[(1R)-3-(dimethylamino)-1-[(phenylthio)methyl]propyl]amino]-3-nitrophenyl]sulfonyl]-benzamide, reference compound]",direct cytotoxicity,[2],not directly cytotoxic
same,sensitivity of HL60 cells,"HL60 cells; HL60 cells, ABT-737 alone",particularly sensitive
